{
  "source": "patent US20260226048A1",
  "about": "“MULTI-CYCLIC IRAK AND FLT3 INHIBITING COMPOUNDS AND USES THEREOF” (CHILDREN'S HOSPITAL MEDICAL CENTER, priority 2023, published 2026)",
  "data": [
    {"biological_target": "T1, FLT3 D835H (Homo sapiens, UniProt P36888, D835H)", "T1 construct": "purchased DiscoverX (KINOMEscan); host or cells: E. coli BL21-derived host (T7 phage) or HEK-293", "T1 sequence (P36888 27-993 D835H)": "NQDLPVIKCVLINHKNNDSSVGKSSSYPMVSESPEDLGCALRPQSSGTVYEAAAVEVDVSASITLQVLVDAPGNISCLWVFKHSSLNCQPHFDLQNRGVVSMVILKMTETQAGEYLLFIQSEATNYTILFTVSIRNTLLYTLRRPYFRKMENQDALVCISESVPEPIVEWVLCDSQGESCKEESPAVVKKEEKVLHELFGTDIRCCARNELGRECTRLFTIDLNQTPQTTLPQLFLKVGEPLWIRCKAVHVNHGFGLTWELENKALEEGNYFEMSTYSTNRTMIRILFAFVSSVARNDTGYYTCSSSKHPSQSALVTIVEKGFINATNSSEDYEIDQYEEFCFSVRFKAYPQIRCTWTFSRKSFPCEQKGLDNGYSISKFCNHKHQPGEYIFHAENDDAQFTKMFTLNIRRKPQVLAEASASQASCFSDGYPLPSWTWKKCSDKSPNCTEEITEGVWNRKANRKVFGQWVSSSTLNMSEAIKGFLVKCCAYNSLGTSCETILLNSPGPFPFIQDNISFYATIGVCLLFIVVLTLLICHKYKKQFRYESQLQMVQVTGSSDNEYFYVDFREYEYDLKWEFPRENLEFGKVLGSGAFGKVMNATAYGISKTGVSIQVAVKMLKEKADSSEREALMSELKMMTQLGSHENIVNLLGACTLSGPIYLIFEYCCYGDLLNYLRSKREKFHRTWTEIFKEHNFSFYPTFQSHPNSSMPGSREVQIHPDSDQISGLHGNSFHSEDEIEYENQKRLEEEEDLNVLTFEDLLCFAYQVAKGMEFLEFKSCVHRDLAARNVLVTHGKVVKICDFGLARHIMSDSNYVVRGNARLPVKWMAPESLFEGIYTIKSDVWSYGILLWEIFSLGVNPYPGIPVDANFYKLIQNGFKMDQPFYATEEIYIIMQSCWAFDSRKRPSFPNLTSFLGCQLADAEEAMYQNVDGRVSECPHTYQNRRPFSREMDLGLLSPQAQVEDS", "assay": "DiscoverX KINOMEscan competition binding assay, FLT3 D835H", "settings": "11-point 3-fold dilution", "source_text": "[…]. […] As a result, the data report thermodynamic interaction affinities (Kd values), rather than IC50 values that are dependent on ATP concentrations. The assay uses a DNA-tagged version of the protein kinase, and an immobilized ligand bound to a solid support. Compounds that directly or indirectly prevent kinase binding to the immobilized ligand reduce the amount of kinase captured on the solid support, which is detected using an ultra-sensitive qPCR method. Affinity constants reported from the assay have been reported to be independent of the immobilized ligand used that is coupled to the solid support (See supplemental information in Fabian, M. A. et. al., (2005) Nat. Biotechnol. 23, 329-336; Wodicka, L. M. et. al., (2010) Chem. Biol. 17, 1241-1249.)\nKinase-tagged T7 phage strains were prepared in an E. coli host derived from the BL21 strain. E. coli were grown to log-phase and infected with T7 phage and incubated with shaking at 32° C. until lysis. The lysates were centrifuged and filtered to remove cell debris. The remaining kinases were produced in HEK-293 cells and subsequently tagged with DNA for qPCR detection. Streptavidin-coated magnetic beads were treated with biotinylated small molecule ligands for 30 minutes at room temperature to generate affinity resins for kinase assays. The liganded beads were blocked with excess biotin and washed with blocking buffer (SeaBlock (Pierce), 1% BSA, 0.05% Tween 20, 1 mM DTT) to remove unbound ligand and to reduce non-specific binding. […] Test compounds were prepared as 111× stocks in 100% DMSO. Kds were determined using an 11-point 3-fold compound dilution series with three DMSO control points. All compounds for Kd measurements are distributed by acoustic transfer (non-contact dispensing) in 100% DMSO. The compounds were then diluted directly into the assays such that the final concentration of DMSO was 0.9%. All reactions were performed in polypropylene 384-well plates. Each was a final volume of 0.02 mL. […] The kinase concentration in the eluates was measured by qPCR.\nBinding constants (Kds) were calculated with a standard dose-response curve using the Hill equation. The Hill Slope was set to −1. Curves were fitted using a non-linear least square fit with the Levenberg-Marquardt algorithm.", "units": {"Kd": "nM"}, "values": [
      {"smiles": "COc1cc2ncc(-c3nc(N[C@H]4CNCC[C@@H]4F)ncc3F)n2nc1C1CC1", "note": "[Compound 1a, 4-(6-cyclopropyl-7-methoxyimidazo[1,2-b]pyridazin-3-yl)-5-fluoro-N-((3S,4S)-4-fluoropiperidin-3-yl)pyrimidin-2-amine]", "Kd": 0.22},
      {"smiles": "FC(F)COc1cc2ncc(-c3ccnc(N[C@H]4CNCC[C@@H]4F)n3)n2nc1C1CC1", "note": "[Compound 4a, 4-(6-cyclopropyl-7-(2,2-difluoroethoxy)imidazo[1,2-b]pyridazin-3-yl)-N-((3 S,4S)-4-fluoropiperidin-3-yl)pyrimidin-2-amine]", "Kd": 0.7},
      {"smiles": "COc1cc2ncc(-c3nc(N[C@H]4CNCC[C@@H]4F)ncc3F)n2nc1C(C)(C)O", "note": "[Compound 45a, 2-(3-(5-fluoro-2-(((3S,4S)-4-fluoropiperidin-3-yl)amino)pyrimidin-4-yl)-7-methoxyimidazo[1,2-b]pyridazin-6-yl)propan-2-ol]", "Kd": 0.42},
      {"smiles": "CC(C)(O)c1ccc2ncc(-c3nc(N[C@H]4CNCC[C@@H]4F)ncc3F)n2c1", "note": "[Compound 46a, 2-(3-(5-fluoro-2-(((3S,4S)-4-fluoropiperidin-3-yl)amino)pyrimidin-4-yl)imidazo[1,2-a]pyridin-6-yl)propan-2-ol]", "Kd": 0.67},
      {"smiles": "COc1cc2ncc(-c3nc(N[C@H]4CNCC[C@@H]4F)ncc3F)n2nc1C1COC1", "note": "[Compound 92a, 5-fluoro-N-((3S,4S)-4-fluoropiperidin-3-yl)-4-(7-methoxy-6-(oxetan-3-yl)imidazo[1,2-b]pyridazin-3-yl)pyrimidin-2-amine]", "Kd": "< 0.17"},
      {"smiles": "CC(C)(O)c1cn2c(-c3nc(N[C@H]4CNCC[C@@H]4F)ncc3F)cnc2cn1", "note": "[Compound 100a, 2-(3-(5-fluoro-2-(((3S,4S)-4-fluoropiperidin-3-yl)amino)pyrimidin-4-yl)imidazo[1,2-a]pyrazin-6-yl)propan-2-ol]", "Kd": 6.3},
      {"smiles": "COc1cc2ncc(-c3nc(N[C@H]4CNCC[C@@H]4F)ncc3F)n2nc1N1CCCS1(=O)=O", "note": "[Compound 112a, 2-(3-(5-fluoro-2-(((3S,4S)-4-fluoropiperidin-3-yl)amino)pyrimidin-4-yl)-7-methoxyimidazo[1,2-b]pyridazin-6-yl)isothiazolidine 1,1-dioxide]", "Kd": "< 0.17"}
    ]}
  ]
}
